According to ChEMBL document CHEMBL4420080, “Inhibitors of sox18 protein activity for treating angiogenesis- and/or lymphangiogenesis-related diseases” (2018):
Calls of active or inactive are those of the source. The rule behind the calls is not given here.

What was measured:
[1] = test system: Danio rerio; assay: Induction of arterial and venous genes dys-regulation in zebrafish larvae harboring fli1 a:eGFP,-6.5kdrl:mCherry assessed as effect on […] gene expression at 1.5 uM dosed starting from 16 hpf and measured at 24 and 48 hpf by qRT-PCR analysis; assay type: functional, organism-based
[2] = test system: 4T1.2; assay: Antitumor activity against mouse 4T1.2 cells implanted in BALB/c mouse assessed as effect on tumor size at 25 mg/kg/day for 10 days; assay type: functional, organism-based
[3] = target: 5-hydroxytryptamine receptor 2B (Homo sapiens) (UniProt P41595); assay: Inhibition of human 5HT2B receptor at 10 uM relative to control
[4] = test system: Danio rerio; assay: Induction of arterial and venous genes dys-regulation in zebrafish larvae harboring fli1 a:eGFP,-6.5kdrl:mCherry assessed as effect on Ilk1 gene expression at 1.5 uM dosed starting from 16 hpf and measured at 24 and 48 hpf by qRT-PCR analysis; assay type: functional, organism-based
[5] = target: Histone deacetylase 3 (Homo sapiens) (UniProt O15379); assay: Inhibition of human HDAC3 at 10 uM relative to control
[6] = target: Myc proto-oncogene protein (Homo sapiens) (UniProt P01106); assay: Inhibition of c-MYC in HUVEC assessed as reduction of c-MYC transcriptional activity by genome-wide RNA-seq and ChlP-seq analysis; assay type: cell-based
Sequence of Myc proto-oncogene protein (Homo sapiens) (P01106 whole entry): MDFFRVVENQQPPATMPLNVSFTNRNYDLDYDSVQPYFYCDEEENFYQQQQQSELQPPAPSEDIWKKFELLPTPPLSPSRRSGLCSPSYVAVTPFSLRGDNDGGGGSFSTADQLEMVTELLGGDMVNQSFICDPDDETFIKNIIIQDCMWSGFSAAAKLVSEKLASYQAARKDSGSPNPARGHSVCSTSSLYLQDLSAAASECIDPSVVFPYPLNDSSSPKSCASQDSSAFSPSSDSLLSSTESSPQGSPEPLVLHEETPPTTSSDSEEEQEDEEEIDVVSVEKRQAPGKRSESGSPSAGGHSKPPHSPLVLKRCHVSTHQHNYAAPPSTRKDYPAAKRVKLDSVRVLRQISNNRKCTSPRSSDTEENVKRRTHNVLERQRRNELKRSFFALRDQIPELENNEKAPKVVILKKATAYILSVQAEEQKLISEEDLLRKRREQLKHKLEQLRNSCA

[7] = test system: Danio rerio; assay: Induction of arterial and venous genes dys-regulation in zebrafish larvae harboring fli1 a:eGFP,-6.5kdrl:mCherry assessed as effect on mCherry gene expression at 1.5 uM dosed starting from 16 hpf and measured at 24 and 48 hpf by qRT-PCR analysis; assay type: functional, organism-based
[8] = target: Transcriptional repressor CTCF (Homo sapiens) (UniProt P49711); assay: Inhibition of CTCF in HUVEC assessed as reduction of CTCF transcriptional activity by genome-wide RNA-seq and ChlP-seq analysis; assay type: cell-based
Sequence of Transcriptional repressor CTCF (Homo sapiens) (P49711 whole entry): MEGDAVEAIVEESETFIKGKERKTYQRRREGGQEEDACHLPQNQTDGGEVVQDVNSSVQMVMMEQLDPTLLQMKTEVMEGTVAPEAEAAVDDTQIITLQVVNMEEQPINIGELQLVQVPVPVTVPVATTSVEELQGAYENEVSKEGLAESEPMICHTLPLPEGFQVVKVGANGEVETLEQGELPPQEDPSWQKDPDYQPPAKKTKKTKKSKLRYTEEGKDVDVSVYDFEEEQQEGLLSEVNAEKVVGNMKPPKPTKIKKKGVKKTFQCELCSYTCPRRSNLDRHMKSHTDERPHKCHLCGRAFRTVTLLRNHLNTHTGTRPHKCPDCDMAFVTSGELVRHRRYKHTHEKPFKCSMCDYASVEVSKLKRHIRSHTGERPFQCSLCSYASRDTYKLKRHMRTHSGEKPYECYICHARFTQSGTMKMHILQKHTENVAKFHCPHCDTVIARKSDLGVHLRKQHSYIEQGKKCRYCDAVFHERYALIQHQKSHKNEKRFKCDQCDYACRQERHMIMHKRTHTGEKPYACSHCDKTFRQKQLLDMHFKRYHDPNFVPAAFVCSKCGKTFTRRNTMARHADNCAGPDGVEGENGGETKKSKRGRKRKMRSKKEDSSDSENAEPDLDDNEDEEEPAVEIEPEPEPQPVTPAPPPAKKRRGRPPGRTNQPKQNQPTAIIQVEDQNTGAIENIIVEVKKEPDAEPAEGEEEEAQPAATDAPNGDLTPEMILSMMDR

[9] = target: Protein max (Homo sapiens) (UniProt P61244); assay: Inhibition of MAX in HUVEC assessed as reduction of MAX transcriptional activity by genome-wide RNA-seq and ChlP-seq analysis; assay type: cell-based
Sequence of Protein max (Homo sapiens) (P61244 whole entry): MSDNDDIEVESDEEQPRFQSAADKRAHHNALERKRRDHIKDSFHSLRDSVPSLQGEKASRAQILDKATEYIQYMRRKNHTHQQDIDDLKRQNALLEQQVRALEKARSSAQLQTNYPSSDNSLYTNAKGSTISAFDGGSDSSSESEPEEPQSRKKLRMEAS

[10] = target: Muscarinic acetylcholine receptor M3 (Homo sapiens) (UniProt P20309); assay: Inhibition of human muscarinic M3 receptor at 10 uM relative to control
Sequence of Muscarinic acetylcholine receptor M3 (Homo sapiens) (P20309 whole entry, looked up): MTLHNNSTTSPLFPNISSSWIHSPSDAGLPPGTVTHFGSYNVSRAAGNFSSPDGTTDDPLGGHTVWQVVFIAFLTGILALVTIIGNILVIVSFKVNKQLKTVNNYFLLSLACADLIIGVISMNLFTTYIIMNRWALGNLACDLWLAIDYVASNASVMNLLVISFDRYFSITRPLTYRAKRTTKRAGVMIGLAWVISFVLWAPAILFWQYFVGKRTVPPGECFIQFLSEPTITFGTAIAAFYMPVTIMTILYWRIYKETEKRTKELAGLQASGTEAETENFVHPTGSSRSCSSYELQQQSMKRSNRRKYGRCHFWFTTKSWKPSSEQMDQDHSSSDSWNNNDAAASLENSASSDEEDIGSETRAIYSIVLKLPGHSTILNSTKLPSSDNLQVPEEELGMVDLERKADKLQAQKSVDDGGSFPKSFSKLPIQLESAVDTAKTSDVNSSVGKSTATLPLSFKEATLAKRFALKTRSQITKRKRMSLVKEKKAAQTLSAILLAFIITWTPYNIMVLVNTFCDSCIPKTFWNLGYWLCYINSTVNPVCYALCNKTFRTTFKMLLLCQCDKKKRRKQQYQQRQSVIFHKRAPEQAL

[11] = target: Histone-lysine N-methyltransferase EZH2 (Homo sapiens) (UniProt Q15910); assay: Inhibition of EZH2 in HUVEC assessed as reduction of EZH2 transcriptional activity by genome-wide RNA-seq and ChlP-seq analysis; assay type: cell-based
[12] = test system: 4T1.2; assay: Antitumor activity against mouse 4T1.2 cells implanted in BALB/c mouse assessed as reduction in mean number of lung metastases at 25 mg/kg/day for 10 days measured at day 28 after tumor inoculation relative to control; assay type: functional; parameters: scale not given: the % may be the effect or the level left
[13] = target: Adenosine receptor A2a (Homo sapiens) (UniProt P29274); assay: Inhibition of human adenosine A2A receptor at 10 uM relative to control
[14] = target: Mu-type opioid receptor (Homo sapiens) (UniProt P35372); assay: Inhibition of human mu opioid receptor at 10 uM relative to control
Sequence of Mu-type opioid receptor (Homo sapiens) (P35372 whole entry): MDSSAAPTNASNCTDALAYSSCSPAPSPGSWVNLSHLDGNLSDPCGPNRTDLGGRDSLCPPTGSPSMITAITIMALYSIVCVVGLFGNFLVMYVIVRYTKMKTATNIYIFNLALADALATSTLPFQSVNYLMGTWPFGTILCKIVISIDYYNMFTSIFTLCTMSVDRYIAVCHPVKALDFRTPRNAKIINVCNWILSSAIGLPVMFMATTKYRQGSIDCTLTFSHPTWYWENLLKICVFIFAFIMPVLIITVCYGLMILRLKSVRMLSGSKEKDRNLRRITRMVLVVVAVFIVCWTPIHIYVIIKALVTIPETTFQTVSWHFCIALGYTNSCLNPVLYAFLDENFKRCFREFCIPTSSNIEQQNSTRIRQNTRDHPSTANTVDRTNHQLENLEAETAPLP

[15] = target: Sodium-dependent noradrenaline transporter (Homo sapiens) (UniProt P23975); assay: Inhibition of human NET at 10 uM relative to control
Sequence of Sodium-dependent noradrenaline transporter (Homo sapiens) (P23975 whole entry): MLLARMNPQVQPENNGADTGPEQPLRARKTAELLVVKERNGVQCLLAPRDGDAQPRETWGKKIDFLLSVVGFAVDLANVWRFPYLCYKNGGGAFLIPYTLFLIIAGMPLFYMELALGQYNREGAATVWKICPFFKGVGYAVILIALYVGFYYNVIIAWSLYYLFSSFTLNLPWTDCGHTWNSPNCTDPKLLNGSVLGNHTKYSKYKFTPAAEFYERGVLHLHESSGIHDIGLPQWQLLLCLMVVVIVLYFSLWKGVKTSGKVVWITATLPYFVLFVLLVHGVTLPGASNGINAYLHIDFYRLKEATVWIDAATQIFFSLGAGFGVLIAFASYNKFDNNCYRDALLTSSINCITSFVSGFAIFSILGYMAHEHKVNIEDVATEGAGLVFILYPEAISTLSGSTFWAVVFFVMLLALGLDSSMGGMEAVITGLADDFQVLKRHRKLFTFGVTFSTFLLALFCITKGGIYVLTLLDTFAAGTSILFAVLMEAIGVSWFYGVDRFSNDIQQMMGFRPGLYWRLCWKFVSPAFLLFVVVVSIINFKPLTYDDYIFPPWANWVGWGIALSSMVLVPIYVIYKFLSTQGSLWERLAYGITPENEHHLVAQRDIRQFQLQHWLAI

[16] = target: Transcription factor SOX-9 (Homo sapiens) (UniProt P48436); assay: Inhibition of SOX9 in HUVEC assessed as reduction of SOX9-SOX9 interactions up to 200 uM incubated for 45 mins by Alpha-screen assay; assay type: cell-based
[17] = test system: 4T1.2; assay: Antitumor activity against mouse 4T1.2 cells implanted in BALB/c mouse assessed as median disease latency time at 25 mg/kg/day for 10 days (Rvb =33 days); assay type: functional
[18] = target: NAD-dependent protein deacetylase sirtuin-2 (Homo sapiens) (UniProt Q8IXJ6); assay: Inhibition of human Sirtuin2 at 10 uM relative to control
[19] = test system: Cricetinae; assay: Inhibition of hamster KATP channel at 10 uM relative to control
[20] = target: Histamine H1 receptor (Homo sapiens) (UniProt P35367); assay: Inhibition of human histamine H1 receptor at 10 uM relative to control
Sequence of Histamine H1 receptor (Homo sapiens) (P35367 whole entry): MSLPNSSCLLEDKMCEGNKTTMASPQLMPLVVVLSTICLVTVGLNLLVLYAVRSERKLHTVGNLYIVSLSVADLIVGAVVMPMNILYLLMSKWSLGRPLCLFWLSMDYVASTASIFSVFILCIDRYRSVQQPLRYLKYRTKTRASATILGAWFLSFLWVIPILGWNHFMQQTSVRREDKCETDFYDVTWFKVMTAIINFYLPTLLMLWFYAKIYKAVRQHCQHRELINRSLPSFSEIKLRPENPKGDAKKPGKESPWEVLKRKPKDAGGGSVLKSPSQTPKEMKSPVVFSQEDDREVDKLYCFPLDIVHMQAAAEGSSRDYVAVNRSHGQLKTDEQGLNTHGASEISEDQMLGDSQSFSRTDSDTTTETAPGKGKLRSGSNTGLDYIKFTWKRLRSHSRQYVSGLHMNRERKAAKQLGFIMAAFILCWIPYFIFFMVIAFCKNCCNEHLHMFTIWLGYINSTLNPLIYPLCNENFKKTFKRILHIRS

[21] = target: Prostaglandin E2 receptor EP4 subtype (Homo sapiens) (UniProt P35408); assay: Inhibition of human EP4 receptor at 10 uM relative to control
Sequence of Prostaglandin E2 receptor EP4 subtype (Homo sapiens) (P35408 whole entry): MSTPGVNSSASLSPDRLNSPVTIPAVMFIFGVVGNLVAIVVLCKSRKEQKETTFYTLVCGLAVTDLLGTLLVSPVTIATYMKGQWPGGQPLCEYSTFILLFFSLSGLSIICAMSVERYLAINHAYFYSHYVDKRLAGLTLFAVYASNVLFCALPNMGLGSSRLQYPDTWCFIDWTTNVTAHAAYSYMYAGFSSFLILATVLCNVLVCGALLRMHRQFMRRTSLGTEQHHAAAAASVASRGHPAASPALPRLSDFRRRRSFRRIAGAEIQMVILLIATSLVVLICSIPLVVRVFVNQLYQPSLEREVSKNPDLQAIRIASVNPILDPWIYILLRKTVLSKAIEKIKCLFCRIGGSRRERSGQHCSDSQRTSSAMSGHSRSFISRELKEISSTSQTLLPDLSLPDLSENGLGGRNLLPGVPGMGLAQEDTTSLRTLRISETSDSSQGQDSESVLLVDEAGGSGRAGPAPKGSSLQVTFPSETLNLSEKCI

[22] = test system: Danio rerio; assay: Induction of arterial and venous genes dys-regulation in zebrafish larvae harboring fli1 a:eGFP,-6.5kdrl:mCherry assessed as effect on dll4 gene expression at 1.5 uM dosed starting from 16 hpf and measured at 24 and 48 hpf by qRT-PCR analysis; assay type: functional, organism-based
[23] = target: Alpha-1B adrenergic receptor (Rattus norvegicus) (UniProt P15823); assay: Inhibition of rat adrenergic alpha1B receptor at 10 uM relative to control
[24] = target: Alpha-1A adrenergic receptor (Rattus norvegicus) (UniProt P43140); assay: Inhibition of rat adrenergic alpha1A receptor at 10 uM relative to control
[25] = target: Protein c-Fos (Homo sapiens) (UniProt P01100); assay: Inhibition of c-FOS in HUVEC assessed as reduction of c-FOS transcriptional activity by genome-wide RNA-seq and ChlP-seq analysis; assay type: cell-based
[26] = Critical micellar concentration of the compound; assay type: physicochemical
[27] = target: D(2) dopamine receptor (Homo sapiens) (UniProt P14416); assay: Inhibition of human dopamine D2S receptor at 10 uM relative to control
Sequence of D(2) dopamine receptor (Homo sapiens) (P14416 whole entry): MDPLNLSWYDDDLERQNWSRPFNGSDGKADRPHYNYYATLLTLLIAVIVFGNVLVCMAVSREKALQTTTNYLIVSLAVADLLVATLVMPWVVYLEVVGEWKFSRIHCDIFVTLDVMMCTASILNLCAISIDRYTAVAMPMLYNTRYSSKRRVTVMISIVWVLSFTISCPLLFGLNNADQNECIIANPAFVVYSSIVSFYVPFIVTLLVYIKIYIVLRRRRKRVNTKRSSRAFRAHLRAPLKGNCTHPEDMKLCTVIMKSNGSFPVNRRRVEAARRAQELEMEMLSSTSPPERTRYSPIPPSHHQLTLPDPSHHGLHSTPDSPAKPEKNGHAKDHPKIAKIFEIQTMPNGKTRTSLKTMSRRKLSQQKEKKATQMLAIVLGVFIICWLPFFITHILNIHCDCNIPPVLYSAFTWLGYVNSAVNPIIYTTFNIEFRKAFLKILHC

[28] = test system: 4T1.2; assay: Inhibition of tumor induced vascular response in mouse 4T1.2 cells implanted BALB/c mouse assessed as reduction in number of endothelial cells in tumor region at 25 mg/kg/day for 10 days by ERG/EMCN-detection based immunofluorescent staining relative to control; assay type: functional; conditions: 4T1.2, 240 h
[29] = target: D(1A) dopamine receptor (Homo sapiens) (UniProt P21728); assay: Inhibition of human dopamine D1 receptor at 10 uM relative to control
[30] = target: GABA-A receptor; anion channel (Rattus norvegicus) (UniProt O09028+P15431+P18506+P18508+P19969+P20236+P23574+P23576+P28471+P28473+P30191+P62813+P63079+P63138+Q91ZM7+Q9ES14); assay: Inhibition of rat GABAA channel muscimol binding site at 10 uM relative to control; assay type: protein-complex assay
[31] = test system: 4T1.2; assay: Antitumor activity against mouse 4T1.2 cells implanted in BALB/c mouse assessed as median disease latency time at 50 mg/kg/day for 10 days (Rvb =40 days); assay type: functional
[32] = target: Estrogen receptor (Homo sapiens) (UniProt P03372); assay: Inhibition of human ERalpha at 10 uM relative to control
Sequence of Estrogen receptor (Homo sapiens) (P03372 whole entry): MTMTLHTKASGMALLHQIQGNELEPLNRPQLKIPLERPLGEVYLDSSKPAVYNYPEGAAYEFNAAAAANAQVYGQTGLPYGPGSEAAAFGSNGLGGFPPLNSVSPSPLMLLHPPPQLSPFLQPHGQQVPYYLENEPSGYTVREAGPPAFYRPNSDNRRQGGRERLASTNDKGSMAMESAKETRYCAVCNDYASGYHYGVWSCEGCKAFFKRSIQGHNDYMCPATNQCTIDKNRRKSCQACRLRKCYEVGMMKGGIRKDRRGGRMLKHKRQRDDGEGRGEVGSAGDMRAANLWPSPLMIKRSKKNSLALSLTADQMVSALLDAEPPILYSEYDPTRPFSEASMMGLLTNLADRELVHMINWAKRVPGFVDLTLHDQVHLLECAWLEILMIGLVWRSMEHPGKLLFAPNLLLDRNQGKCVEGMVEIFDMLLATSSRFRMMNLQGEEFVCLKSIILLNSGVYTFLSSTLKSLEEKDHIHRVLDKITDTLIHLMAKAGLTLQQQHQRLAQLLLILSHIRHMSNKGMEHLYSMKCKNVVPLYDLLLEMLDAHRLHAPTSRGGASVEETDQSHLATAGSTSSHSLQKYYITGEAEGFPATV

[33] = Cytotoxicity in African green monkey COS7 cells assessed as reduction in cell viability incubated for 24 hrs by Alamar blue dye based assay; parameters: species or system COS-7; conditions: chlorocebus aethiops
[34] = test system: 4T1.2; assay: Inhibition of tumor induced lymphangiogenesis response in mouse 4T1.2 cells implanted BALB/c mouse assessed as reduction in tumor associated lymphatic vessels at 25 mg/kg/day for 10 days by PROX1/podoplanin detection based immunofluorescent staining relative to control; assay type: functional; conditions: 4T1.2, 240 h

Question: Which results are given for O=C(O)c1c(O)cccc1CCc1ccc2ccccc2c1?
Answer: Activity [1]: Active; Activity [2]: inactive; inhibition [3]: -2%; Activity [4]: Active; inhibition [5]: -4.8%; inhibition [6]: inactive; Activity [7]: Active; inhibition [8]: inactive; inhibition [9]: inactive; inhibition [10]: 8%; inhibition [11]: inactive; Activity [12]: 67%; inhibition [13]: 30%; inhibition [14]: 3%; inhibition [15]: 34%; inhibition [16]: inactive; Time [17]: 33 days; inhibition [18]: -5.2%; inhibition [19]: 10%; inhibition [20]: 2%; inhibition [21]: 27%; Activity [22]: Active; inhibition [23]: -1%; inhibition [24]: 0%; inhibition [25]: inactive; CMC [26]: > 1000 µM; inhibition [27]: 15%; inhibition in vivo at 25 mg/kg/day [28]: 48%; inhibition [29]: 12%; inhibition [30]: 6%; Time [31]: 73 days; inhibition [32]: -10%; CC50 at 24 h [33]: 117 µM; inhibition in vivo at 25 mg/kg/day [34]: 65%
